Assay results as given in US20070110743A1, “Methods of protein production using anti-senescence compounds” (Wyeth, priority 2005, published 2007).

Tests used:
MYO-29 cell line [1] = test: Carnosine addition to 1 L fed-batch bioreactor cell culture (Example 2); format: cell-based; conditions: 20 mM carnosine added day 4
Experimental: Five bioreactors were inoculated with 0.9×10^6 cells/ml with a 1 L working volume of a MYO-29 cell line in a serum free inoculation medium. All the bioreactors were fed 5% (v/v) of a feed medium on days 3, 5, 7, and 12 of a 14-day run. A day 10 feed of 5% (v/v) of the feed medium was added to two of the control bioreactors and one containing carnosine. The conditions of the bioreactors were held at a temperature of 37° C., a pH of 7.00, and a dissolved oxygen level at 30% air saturation.
The bioreactors were harvested on day 14 of the production run. Samples were taken throughout the run to monitor the progress of the cell culture medium. The controls performed as expected.

MYO-29 cell line [2] = test: Different concentrations of carnosine in 1 L bioreactor cell culture (Example 3); format: cell-based
Experimental: Four bioreactors were inoculated with 0.4×10^6 cells/ml with a 1 L working volume of a MYO-29 cell line in a serum free inoculation medium. All the bioreactors were all fed 5% (v/v) of a feed medium on day 7 of the 14-day run. The conditions of the bioreactor were held at a temperature of 37° C., a pH of 7.00, and a dissolved oxygen level at 30% air saturation.
All cells were cultured for four days at which point the temperature was shifted in all of the bioreactors to 31° C. […] All bioreactors were harvested on day 12 of the production run. Samples were taken throughout the run to monitor the progress of the cell culture medium. The controls performed generally as expected, except one control had slightly lower daily viabilities than previously seen.

[3] = system: human diploid fibroblasts and human fetal lung (primary cell lines); conditions: concentration of 20 mM in culture media; cited from earlier work
[4] = system: human or rodent transformed and neoplastic cells; conditions: cited from earlier work
[5] = addition of the chemical agent to the culture; cited from earlier work

| Structure (SMILES) | cumulative specific cellular productivity (MYO-29 cell line [1]; 14-day run) | daily titer at the time of harvest (MYO-29 cell line [1]; harvest day 14) | daily cell viability upon being harvested (MYO-29 cell line [1]; harvest day 14, compared to bioreactors without carnosine) | daily titer (MYO-29 cell line [2]; 20 mM or 40 mM carnosine added day 4, compared with one of the controls) | daily cell viability upon being harvested (MYO-29 cell line [2]; 20 mM or 40 mM carnosine added day 4, harvest day 12, compared to two control bioreactors) | daily viable cell density (MYO-29 cell line [2]; 20 mM or 40 mM carnosine added day 4, versus controls) | cumulative specific cellular productivity (MYO-29 cell line [2]; 40 mM carnosine added day 4) | lifespan of cells [3] | cytotoxic effects ([4]; dialyzed fetal calf serum with low molecular weight compounds removed) | cytotoxicity ([4]; in Minimal Essential Medium (MEM), lower glucose levels) | cell growth and viable cell number [5] |
| --- | --- | --- | --- | --- | --- | --- | --- | --- | --- | --- | --- |
| NCCC(=O)N[C@@H](Cc1cnc[nH]1)C(=O)O [carnosine] | better | higher titer | higher | similar | higher viability | fairly similar with the exception of the bioreactor with 4 mM of carnosine | higher | extend the lifespan | increased the cytotoxic effects | cytotoxic |  |
| CCCC(=O)[O-].[Na+] [sodium butyrate] |  |  |  |  |  |  |  |  |  |  | cell growth ceases and the viable cell number decreases |
